Data from US20230405002A1, “COMBINATIONS OF DIACYLGLYCEROL ACYLTRANSFERASE 2 INHIBITORS AND ACETYL-COA CARBOXYLASE INHIBITOR” (Pfizer Inc., priority 2020, published 2023).

What was measured:
SREBP-1 = experiment: Compound A / Compound D study in Western diet fed rats: nuclear SREBP-1 localization (Western blot); type: in vivo, rat; details: high dose; relative to vehicle treated Western diet fed rats
Description: (§1) A randomized, vehicle-controlled, 8-parallel arm study was conducted in male Sprague-Dawley rats (Charles River (Boston, MA)) to obtain circulating and hepatic TG levels. Standard laboratory conditions were used to house 96 rats (˜200 g); they were double housed and kept under 12:12-hour reverse light-dark schedule (lights off at 8:00 AM). Rats were randomized into chow or Western diet groups and dose groups upon arrival and were given a 14-day lead-in period on either standard rat chow or Western diet prior to the start of the study. Standard Laboratory Rodent chow diet, 5053, was from LabDiet (PMI, St Louis, Missouri). Western Diet, D12079Bi, was from Research Diets (New Brunswick, NJ).
Nuclear and Membrane fractions were prepared by ultracentrifugation using standard methods from a portion of the pulverized liver samples, that were pooled per treatment group. Samples from the nuclear extract and the membrane fractions were analyzed by Western blotting for SREBP1. Western blots for Calnexin was used as a marker for the membrane fraction, actin as a marker for total sample loading, and Histone 2B as a marker for the nuclear fraction. Nuclear SREBP1 levels were quantified using relative units and normalized to Histone 2B to control for sample loss during the nuclear fractionation and gel loading.

[1] = system: ACC1, FASN, SCD1, PCSK9 and SREBP-1c; experiment: Compound A / Compound D study in Western diet fed rats: hepatic lipogenic gene expression (qPCR); type: in vivo, rat; details: relative to Western diet fed vehicle treated rats
Description: as §1
Another portion of the pulverized liver was processed and analyzed for lipogenic gene expression. Rat taqman probes against ACC1, FASN, SCD1, PCSK9 and SREBP-1c were all assessed using Actb as housekeeping gene on qPCR.

[2] = system: CDAHFD fed male Wistar-Han rats; experiment: CDAHFD rat study: liver stiffness by shearwave elastography; type: in vivo; details: Compound A 5 mg/kg, Compound D 30 mg/kg twice daily, 6 weeks
Text: (§2) Standard laboratory conditions were used to house 60 rats (˜200 g); they were double housed and kept under 12:12-hour reverse light-dark schedule (lights off at 8:00 AM). Rats were fed choline deficient and high fat diet (CDAHFD) beginning 6-weeks prior to initiation of the study. […] Animals (n=12) remaining on normal chow throughout the study and administered twice-daily vehicle were used as a control group. Blood samples were collected prior to starting compound administration and 3- and 6-week post compound administration for the assessment of circulating markers. Shearwave elastography (Aixplorer Ultimate imager, Supersoinc imagine) measurements were made at Week −3, Week 0 (prior to 1st dose), Week 3 and Week 6 to assess inflammation and fibrosis progression over time. Histology was assessed following 6-weeks of drug administration which corresponded to 12 weeks on the CDAHFD. Results are provided as an average of animals per each dosing group.

[3] = system: CDAHFD fed male Wistar-Han rats; experiment: CDAHFD rat study: liver histology (αSMA IHC, Picrosirius red, Iba1 staining); type: in vivo; details: Compound A 5 mg/kg, Compound D 30 mg/kg twice daily, 6 weeks
Text: as §2
Following the 12-weeks on CDAHFD, the animals were sacrificed by CO2 asphyxiation. The right lateral, medial and left lateral lobes of the liver were harvested. Sections were taken from the left lateral, right medial and right lateral lobes and fixed in formalin and processed to paraffin blocks per animal. One section of left lateral lobe per animal was cryopreserved in optimal cutting temperature (OCT) compound. The remainder of the liver from each animal was frozen and rapidly pulverized on an aluminum block cooled in liquid N2, ensuring the tissue remained frozen throughout the pulverization. The pulverized tissue was transferred and stored at −80° C. until analysis. A portion of the pulverized liver sample from each animal was processed and analyzed for gene expression markers of fibrogenesis. Rat taqman probes against αSMA and COL1A1 were all assessed using Actb as housekeeping gene on qPCR.
The following endpoints were evaluated by qualitative histologic evaluation by a board certified veterinary pathologist and quantitative histomorphometry: hepatic stellate cell activation and differentiation into myofibroblasts by αSMA immunohistochemistry (IHC); Collagen as a correlate of fibrosis by Picrosirius Red stain. Images were analyzed using Visiopharm software. Visiopharm applications with threshold parameters were applied uniformly to identify tissue sections and to quantify the targets on each IHC (DAB (3,3′-diaminobenzidine) positive) or histochemically stained slides as percent area: stain area of interest/Total tissue ROI−whitespace)×100%. Non-parametric statistics were used to analyze data from this study. Group values were reported as mean+/− the standard error of the mean.

COc1cc(C(=O)N2CCC3(CC2)CC(=O)c2c(cnn2C(C)C)C3)cc(-c2ccc(C(=O)O)cc2)n1 [Compound A, 4-(4-(1-isopropyl-7-oxo-1,4,6,7-tetrahydrospiro[indazole-5,4′-piperidine]-1′-carbonyl)-6-methoxypyridin-2-yl)benzoic acid]
nuclear SREBP-1 localization (SREBP-1): increased nuclear localization of SREBP-1
hepatic lipogenic gene expression (ACC1, FASN, SCD1, SREBP1, PCSK9) [1]: trended to further increase
liver stiffness (shearwave elastography) [2]: reduced liver stiffness
reduction of Iba1 staining [3]: 15%
reduction of Picosrius red (PSR) staining [3]: 26%
reduction of αSMA staining [3]: 41%

CCOc1cccnc1Oc1cncc(-c2ncc(C(=O)N[C@H]3CCOC3)cn2)c1 [Compound D, (S)-2-(5-((3-ethoxypyridin-2-yl)oxy)pyridin-3-yl)-N-(tetrahydrofuran-3-yl)pyrimidine-5-carboxamide]
nuclear SREBP-1 localization (SREBP-1): reduced SREBP-1 nuclear localization
hepatic lipogenic gene expression (ACC1, FASN, SCD1, SREBP1, PCSK9) [1]: decreased expression of all of the lipogenic genes
liver stiffness (shearwave elastography) [2]: reduced liver stiffness
reduction of Iba1 staining [3]: did not alter Iba1 staining
reduction of Picosrius red (PSR) staining [3]: 20%
reduction of αSMA staining [3]: 23%
